Test results from patent publication US6790986B1, “Process for the preparation of gabapentin free from inorganic acids anions” (Farchemia S.r.l., priority 2003, dated 2004).
Read-outs that look alike come from different tables or passages of the source.

Key:
[1] = hydroxybenzoate salts of gabapentin in water; precipitates from aqueous solution
Excerpt: Numerous processes for reducing the chloride ions content in gabapentin exist. […] The proportion of remaining hydrochloride admixtures should thereby not exceed 20 ppm. The same also applies to other mineral acids.”

[2] = storage stability (increase of lactam content on storage); type: physicochemical; details: gabapentin obtained by the process; after one year at 25° C. and 50% humidity
Description: According to the invention, an aqueous solution containing approx. 10 to approx. 18 kg, preferably 13-15 kg, of gabapentin per 100 liters of water, at a temperature ranging from approx. 25 to approx. 60° C., preferably from 30 to 45° C., is added with the hydroxyacid in amounts of 0.95-1.05 mols per mol of gabapentin, the preferred molar ratio between the compounds being 1:1. The resulting suspension is stirred at the same temperature for 5-10 hours, then cooled to approx. 15-25° C. The resulting gabapentin hydroxybenzoate is dried under vacuum at approx. 50° C. The yield is approx. 90% on theoretical, with a assay higher than 99.5%. The resulting salt is suspended in a lower alcohol, preferably absolute ethanol, in amounts of approx. 3-5 liters per kg of salt, at a temperature of 15-25° C., and the suspension is added with an amount of tertiary amine (preferably tributylamine and most preferably N-ethyl-diisopropylamine (“Hünig base”)) in amounts of 1-1.2 mols per mol of gabapentin hydroxybenzoate. After stirring for some hours at the same temperature, the mixture is cooled to 5-10° C., the precipitated gabapentin is filtered or centrifuged, washed with the same alcohol, then stirred with ethanol containing approx. 10% by volume of water.

[3] = stated as known; cited from earlier work

Structure (SMILES) | water-solubility [1] | increase of content in lactam on storage [2] | water-solubility [3]
NCC1(CC(=O)O)CCCCC1.O=C(O)c1ccc(O)cc1 [gabapentin 4-hydroxybenzoate] | so poor | – | –
NCC1(CC(=O)O)CCCCC1.O=C(O)c1ccccc1O [salicylate, gabapentin salicylate] | so poor | – | –
NCC1(CC(=O)O)CCCCC1 [gabapentin, 1-(aminomethyl)-cyclohexaneacetic acid] | – | does not undergo substantial increases | highly water-soluble
